Data taken from US8188117B2, “Piperidinyl-substituted isoquinolone derivatives” (Sanofi-Aventis, priority 2005, dated 2012).

Molecular target: T1, ROCKII or ROKα (Homo sapiens, UniProt O75116)
T1 construct: purchased Upstate 14-451
Assay: Determination of Rho kinase inhibition (γ33P ATP, Streptavidin Flash Plate)
Assay type: biochemical
Conditions: ATP 40 μM, enzyme 0.1 ng/μl, 20 min at room temperature, tested as salt or free base obtained in the examples
Method: Determination of Rho Kinase Inhibition
To measure Rho-kinase inhibition, IC50 values were determined according to the following protocol:
Buffer: 25 mM Tris pH7.5; 0.02% BSA; 5% Glycerol; 0.008% Triton X100; 2% DMSO, 1 mM DTT; 1 mM MgCl2; 0.5 μCi/well γ^33P ATP
Enzyme: ROCKII or ROKα) (Upstate, Catalog #14-451 Lot #24880U) 0.1 ng/μl Final concentration of ATP in reaction mixture 40 μM
Biotinylated substrate, diluted to 0.25 μM with buffer described above (without ATP)
• 1. 10 μl Tris buffer (±Inhibitor) • 2. Add 30 μL of enzyme solution • 3. Start the reaction with 30 μL of mix substrate/ATP/ATP33 • 4. Incubate for 20 min at room temperature • 5. Stop reaction with 30 μL of 50 mM EDTA • 6. Transfer 50 μL of stopped solution to Streptavidin Flash Plate plus, Perkin Elmer, SMP 103A • 7. Incubate for 30 min at RT • 8. Wash 4 times with 300 μl of PBS/0.1% Tween 20 • 9. Radioactivity in the well was determined

T1 sequence (O75116 whole entry): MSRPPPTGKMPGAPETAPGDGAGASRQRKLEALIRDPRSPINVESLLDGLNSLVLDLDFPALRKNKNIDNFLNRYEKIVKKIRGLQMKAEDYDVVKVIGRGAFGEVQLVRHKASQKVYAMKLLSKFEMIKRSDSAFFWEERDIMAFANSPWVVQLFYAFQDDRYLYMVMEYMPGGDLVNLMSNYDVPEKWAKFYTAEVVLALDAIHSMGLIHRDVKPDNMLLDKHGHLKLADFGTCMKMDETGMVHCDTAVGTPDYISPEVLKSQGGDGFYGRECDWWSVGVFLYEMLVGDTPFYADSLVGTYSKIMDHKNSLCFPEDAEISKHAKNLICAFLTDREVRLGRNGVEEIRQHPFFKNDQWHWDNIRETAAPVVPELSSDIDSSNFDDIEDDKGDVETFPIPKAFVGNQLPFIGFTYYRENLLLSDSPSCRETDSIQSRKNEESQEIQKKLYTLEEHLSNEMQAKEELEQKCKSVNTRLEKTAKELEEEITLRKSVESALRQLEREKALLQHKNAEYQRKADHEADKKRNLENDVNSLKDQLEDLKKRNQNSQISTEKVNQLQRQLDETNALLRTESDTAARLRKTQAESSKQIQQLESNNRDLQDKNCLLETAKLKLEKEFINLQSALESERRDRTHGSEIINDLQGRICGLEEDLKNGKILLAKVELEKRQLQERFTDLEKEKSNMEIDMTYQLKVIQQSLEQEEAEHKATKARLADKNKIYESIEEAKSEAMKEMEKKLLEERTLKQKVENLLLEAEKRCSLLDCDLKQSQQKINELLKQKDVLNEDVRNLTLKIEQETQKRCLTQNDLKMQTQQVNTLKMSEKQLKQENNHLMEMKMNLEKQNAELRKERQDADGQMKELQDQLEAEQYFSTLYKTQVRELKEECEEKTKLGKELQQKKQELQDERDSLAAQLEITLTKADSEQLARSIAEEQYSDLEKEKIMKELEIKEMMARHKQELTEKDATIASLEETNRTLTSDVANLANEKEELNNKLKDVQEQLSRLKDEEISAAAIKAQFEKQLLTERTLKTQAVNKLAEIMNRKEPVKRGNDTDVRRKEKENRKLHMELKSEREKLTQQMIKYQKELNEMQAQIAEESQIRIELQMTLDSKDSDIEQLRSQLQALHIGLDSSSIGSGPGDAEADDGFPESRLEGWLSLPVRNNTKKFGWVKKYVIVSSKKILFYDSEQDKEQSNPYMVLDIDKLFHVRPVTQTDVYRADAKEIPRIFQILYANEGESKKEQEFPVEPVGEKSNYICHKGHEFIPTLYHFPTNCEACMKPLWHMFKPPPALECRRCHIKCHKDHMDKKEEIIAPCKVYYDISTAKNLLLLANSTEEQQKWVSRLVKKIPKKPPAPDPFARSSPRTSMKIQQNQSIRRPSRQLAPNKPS

Row | Compound | pIC50
1 | O=c1[nH]ccc2cc(OC3CCNCC3)ccc12 [Example 12, 6-(Piperidin-4-yloxy)-2H-isoquinolin-1-one] | +++++ (6.0 ≦ pIC50)
2 | O=c1[nH]ccc2cc(OC3CCNCC3)c(Br)cc12 [Example 17, 7-Bromo-6-(piperidin-4-yloxy)-2H-isoquinolin-1-one] | +++++ (6.0 ≦ pIC50)
3 | Cc1c[nH]c(=O)c2ccc(OC3CCNCC3)cc12 [Example 21] | +++++ (6.0 ≦ pIC50)
4 | O=c1[nH]ccc2cc(OC3CCNCC3)c(F)cc12 [Example 23] | +++++ (6.0 ≦ pIC50)
5 | COc1cc2c(=O)[nH]ccc2cc1OC1CCNCC1 [Example 25] | ++++ (5.0 ≦ pIC50 < 6.0)
6 | Cc1cc2c(=O)[nH]cc(C)c2cc1OC1CCNCC1 [Example 28] | +++++ (6.0 ≦ pIC50)
7 | CCc1c[nH]c(=O)c2ccc(OC3CCNCC3)cc12 [Example 31] | +++++ (6.0 ≦ pIC50)
8 | CCc1c[nH]c(=O)c2cc(F)c(OC3CCNCC3)cc12 [Example 32] | ++++ (5.0 ≦ pIC50 < 6.0)
9 | CN1CCC(Oc2ccc3c(=O)[nH]ccc3c2)CC1 [Example 40] | +++++ (6.0 ≦ pIC50)
10 | O=c1[nH]ccc2cc(OC[C@H]3CCCNC3)ccc12 [Example 49] | ++++ (5.0 ≦ pIC50 < 6.0)
11 | O=c1[nH]cc(Br)c2cc(OC3CCNCC3)ccc12 [Example 52, 4-Bromo-6-(piperidin-4-yloxy)-2H-isoquinolin-1-one] | +++++ (6.0 ≦ pIC50)
12 | Oc1nccc2cc(OC3CCNCC3)c(Cl)cc12 [Example 54, 7-Chloro-6-(piperidin-4-yloxy)-2H-isoquinolin-1-one] | +++++ (6.0 ≦ pIC50)
13 | CC(C)N1CCC(Oc2cc3ccnc(O)c3cc2Cl)CC1 [Example 55, 7-Chloro-6-(1-isopropyl-piperidin-4-yloxy)-2H-isoquinolin-1-one] | +++++ (6.0 ≦ pIC50)
14 | O=c1[nH]ccc2cc(OC3CCN(CC4CC4)CC3)ccc12 [Example 58] | +++++ (6.0 ≦ pIC50)
15 | CCCN1CCC(Oc2cc3cc[nH]c(=O)c3cc2F)CC1 [Example 101] | +++++ (6.0 ≦ pIC50)
16 | Cc1cc2c(=O)[nH]ccc2cc1OC1CCN(CC2CCOC2)CC1 (centres unmarked) [Example 265] | +++++ (6.0 ≦ pIC50)
17 | Cc1cc2c(=O)[nH]ccc2cc1OC1CCN(Cc2ccsc2)CC1 [Example 266] | +++++ (6.0 ≦ pIC50)
18 | Cc1cc2c(=O)[nH]ccc2cc1OC1CCN(Cc2ccc(S(C)(=O)=O)cc2)CC1 [Example 275] | +++++ (6.0 ≦ pIC50)
19 | Cc1cc2c(=O)[nH]ccc2cc1OC1CCN(Cc2ccccn2)CC1 [Example 276] | +++++ (6.0 ≦ pIC50)
20 | O=c1[nH]ccc2c(Cl)c(OC3CCNCC3)ccc12 [Example 309, 5-Chloro-6-(piperidin-4-yloxy)-2H-isoquinolin-1-one] | +++++ (6.0 ≦ pIC50)
